In data set [1] the target is Kappa-type opioid receptor (Cricetulus griseus) (UniProt G3HZR5). Nature of the data set: Displacement of [3H]U-69593 from kappa opioid receptor in CHO cells at 10 uM after 120 mins relative to control. It is filed as cell-based.
The target is the same in data set [2]. Kind of data set: Displacement of [3H]U-69593 from kappa opioid receptor in CHO cells at 1 uM after 120 mins relative to control. It is filed as cell-based. (Displacement assays read how much labelled ligand stays bound in the presence of the test substance.)
In data set [3] the target is Delta-type opioid receptor (Cricetulus griseus) (UniProt G3H1Y1). Kind of data set: Displacement of [3H]DADLE from delta opioid receptor in CHO cells at 1 uM after 120 mins relative to control. It is filed as cell-based.
Chain of Delta-type opioid receptor (Cricetulus griseus) (G3H1Y1 as listed by the source): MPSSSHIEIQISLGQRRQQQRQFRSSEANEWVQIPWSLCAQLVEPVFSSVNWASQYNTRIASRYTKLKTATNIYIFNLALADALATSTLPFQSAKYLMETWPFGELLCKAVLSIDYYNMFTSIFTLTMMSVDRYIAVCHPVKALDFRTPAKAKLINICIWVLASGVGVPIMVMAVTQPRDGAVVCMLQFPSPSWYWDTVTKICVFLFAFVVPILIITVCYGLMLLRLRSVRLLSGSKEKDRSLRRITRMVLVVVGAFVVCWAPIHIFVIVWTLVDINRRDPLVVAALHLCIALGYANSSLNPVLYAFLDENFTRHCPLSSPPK
Data set [4] has the same target. Nature of the data set: Displacement of [3H]DADLE from delta opioid receptor in CHO cells at 10 uM after 120 mins relative to control. It is filed as cell-based.
In data set [5] the test system is Hepatocyte. Nature of the data set: Inhibition of UDP-glucuronosyltransferase in Sprague-Dawley rat hepatocytes assessed as morphine conversion to M3G at 5 to 40 uM incubated for 72 hrs prior to substrate addition measured after 2 hrs by HPLC analysis. The data set is classed as cell-based.
For data set [6], the species on record is Rattus norvegicus. Kind of data set: Competitive inhibition of UDP-glucuronosyltransferase in Sprague-Dawley rat liver microsomes assessed as morphine conversion to M3G up to 5 uM by Lineweaver-Burk plot analysis.
The species named for data set [7] is Rattus norvegicus. Nature of the data set: Inhibition of UDP-glucuronosyltransferase in Sprague-Dawley rat liver microsomes assessed as morphine conversion to M6G after 30 mins by HPLC analysis. Background: Liver microsomes are a subcellular fraction often used to study metabolism.
Data set [8] can be described thus: (§1) Inhibition of UDP-glucuronosyltransferase in Sprague-Dawley rat liver microsomes assessed as morphine conversion to M3G after 30 mins by HPLC analysis.
For data set [9], the species on record is Rattus norvegicus. The data set is described as §1.
Data set [10] can be described thus: Clearance in Sprague-Dawley rat liver microsomes at 50 uM. It is filed as ADME. The following applies: read-out: CLH.
The nature of data set [11]: Clearance in Sprague-Dawley rat liver microsomes at 5 uM. To be noted: read-out: CLH. It is filed as ADME.
The nature of data set [12]: Clearance in Sprague-Dawley rat liver microsomes at 10 uM. To be noted: read-out: CLH. The data set is classed as ADME.
Data set [13] in a line: Clearance in Sprague-Dawley rat liver microsomes at 2.5 uM. It is filed as ADME. To be noted: read-out: CLH.
Data set [14] is described as follows: Clearance in Sprague-Dawley rat liver microsomes at 1 uM. The data set is classed as ADME. The following applies: read-out: CLH.
For data set [15], the species on record is Rattus norvegicus. Kind of data set: Activity at UDP-glucuronosyltransferase in Sprague-Dawley rat liver microsomes assessed as morphine conversion to M3G at 50 uM by Michaelis-Menten plot analysis.
The species named for data set [16] is Rattus norvegicus. Nature of the data set: Activity at UDP-glucuronosyltransferase in Sprague-Dawley rat liver microsomes assessed as morphine conversion to M3G at 10 uM by Michaelis-Menten plot analysis.
The species entered for data set [17] is Rattus norvegicus. Nature of the data set: Activity at UDP-glucuronosyltransferase in Sprague-Dawley rat liver microsomes assessed as morphine conversion to M3G at 5 uM by Michaelis-Menten plot analysis.
Data set [18] is filed under the species Rattus norvegicus. Nature of the data set: Activity at UDP-glucuronosyltransferase in Sprague-Dawley rat liver microsomes assessed as morphine conversion to M3G at 2.5 uM by Michaelis-Menten plot analysis.
Data set [19] is filed under the species Rattus norvegicus. Nature of the data set: Activity at UDP-glucuronosyltransferase in Sprague-Dawley rat liver microsomes assessed as morphine conversion to M3G at 1 uM by Michaelis-Menten plot analysis.
The target of data set [20] is Mu-type opioid receptor (Homo sapiens) (UniProt P35372). The following applies: HEK293, at 10 µM.
Chain of Mu-type opioid receptor (Homo sapiens) (P35372 whole entry): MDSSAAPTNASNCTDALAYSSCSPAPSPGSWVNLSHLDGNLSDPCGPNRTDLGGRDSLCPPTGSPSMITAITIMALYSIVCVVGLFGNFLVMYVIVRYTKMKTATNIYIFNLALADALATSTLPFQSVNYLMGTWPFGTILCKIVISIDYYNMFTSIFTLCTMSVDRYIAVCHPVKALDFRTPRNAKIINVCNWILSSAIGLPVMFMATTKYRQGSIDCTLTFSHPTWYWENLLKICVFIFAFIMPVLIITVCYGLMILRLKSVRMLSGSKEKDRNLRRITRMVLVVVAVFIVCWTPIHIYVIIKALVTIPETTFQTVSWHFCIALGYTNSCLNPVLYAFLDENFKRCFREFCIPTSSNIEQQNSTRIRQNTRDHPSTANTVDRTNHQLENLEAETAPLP
Description: Displacement of [3H]diprenorphine from mu opioid receptor in HEK293 cells at 10 uM after 120 mins relative to control
The target is the same in data set [21]. The following applies: HEK293, at 1 µM.
Description: Displacement of [3H]diprenorphine from mu opioid receptor in HEK293 cells at 1 uM after 120 mins relative to control
Data set [22] deals with Hepatocyte. Nature of the data set: Inhibition of UDP-glucuronosyltransferase in Sprague-Dawley rat hepatocytes assessed as morphine conversion to M3G at 5 to 10 uM incubated for 72 hrs prior to substrate addition measured after 2 hrs by HPLC analysis. The data set is classed as cell-based.
The species entered for data set [23] is Rattus norvegicus. Kind of data set: Inhibition of UDP-glucuronosyltransferase in Sprague-Dawley rat liver microsomes assessed as morphine conversion to M3G up to 50 uM after 30 mins by HPLC analysis relative to control.
Data set [24] in a line: Inhibition of UDP-glucuronosyltransferase in Sprague-Dawley rat hepatocytes assessed as morphine conversion to M3G incubated for 72 hrs prior to substrate addition measured after 2 hrs by HPLC analysis. It is filed as cell-based. The following applies: Hepatocyte.

Active and inactive are the calls of the source. The calls are words filed in the database; no cut-off is given here.

By inhibition is commonly meant the change of the read-out against control, counted positive when it falls. The IC50 is the point on the concentration scale where inhibition reaches its midpoint. One may read the Ki as a dissociation constant, usually derived from enzyme kinetics or from competition with a known ligand. By Km is commonly meant the substrate concentration at which the rate is half of its maximum. The Vmax is the top rate of the reaction or transport when substrate is in excess.

Chain of Kappa-type opioid receptor (Cricetulus griseus) (G3HZR5 as listed by the source): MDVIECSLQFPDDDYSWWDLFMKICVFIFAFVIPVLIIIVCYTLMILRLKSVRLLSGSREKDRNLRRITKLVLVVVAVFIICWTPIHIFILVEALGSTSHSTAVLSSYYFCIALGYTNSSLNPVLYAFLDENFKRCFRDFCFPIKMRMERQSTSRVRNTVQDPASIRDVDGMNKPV

As for `COc1ccc2c3c1O[C@H]1[C@@H](OC(C)=O)C=C[C@H]4[C@@H](C2)N(C)CC[C@@]341`, the inhibition in [1] was 66%; in data set [2] it was 25%; in data set [3], 18%; in data set [4] it was 60%; in [9] it was “Dose-dependent effect”; in [20], 43%. The inhibition in data set [21] turned out to be 19%. Besides, the inhibition entry in [5] was “Active”. In addition, the inhibition entry in data set [6] and in data set [7] was “inactive” throughout. For the same compound, the IC50 in [8] came to 3.25 µM. Also, in [8], the inhibition constant Ki was 5.17 µM. Also, the microsomal CLint at 50 µM in data set [10] amounted to 5.97 µL/min/mg. Also, the microsomal CLint at 5 µM in data set [11] came to 25 µL/min/mg. In addition, the microsomal CLint at 10 µM in data set [12] was determined as 9.38 µL/min/mg. For the same compound, the microsomal CLint at 2.5 µM in data set [13] came out at 24.7 µL/min/mg. In [14], the microsomal CLint at 1 µM was found to be 37.8 µL/min/mg. The Km in data set [15] was 0.69 µM; in data set [16] it was 0.35 µM; in data set [17], 0.56 µM; in [18], 0.41 µM; in data set [19], 0.26 µM. In addition, the Vmax in data set [15] stood at 4.01 nmol/min/mg; in data set [16], 3.31 nmol/min/mg; in data set [17] it was 7.92 nmol/min/mg; in data set [18], 10.1 nmol/min/mg; in [19], 9.74 nmol/min/mg.
As to `COc1ccc2c3c1O[C@H]1[C@@H](O)CC[C@H]4[C@@H](C2)N(C)CC[C@@]341`, the inhibition in data set [1] turned out to be 51%; in data set [2], 4%; in data set [3] it was 7%; in data set [4], 24%; in data set [23] it was 40%; in data set [20], 40%. Also, the inhibition in data set [21] was 17%. Besides, the inhibition result in data set [22] and in data set [7] was “inactive” each time.
On to `COc1ccc2c3c1O[C@H]1[C@@H](OC(C)=O)CC[C@H]4[C@@H](C2)N(C)CC[C@@]341`, for which the inhibition was 13% in data set [1]; 3% in data set [2]; -10% in data set [3]; 5% in data set [20]; -2% in data set [21]. Further, the inhibition result in [22] and in data set [7] was “inactive” in each case. In addition, in data set [23], the inhibition result was “Active”.
As to `COc1ccc2c3c1O[C@H]1[C@@H](OC(=O)C(C)(C)C)C=C[C@H]4[C@@H](C2)N(C)CC[C@@]341`, the inhibition in data set [1] is 42%; in data set [2], 6%; in data set [3] it was 57%; in [4], 90%; in [9], “Dose-dependent effect”; in data set [20], 38%. In addition, the inhibition in data set [21] stood at 20%. Further, the inhibition entry in data set [5] was “Active”. Also, in data set [7], the inhibition result was “inactive”. For the same compound, the IC50 in [8] is 2.27 µM. The Ki in data set [8] is 2.56 µM. Besides, the microsomal CLint at 50 µM in [10] came out at 6.54 µL/min/mg. Also, the microsomal CLint at 5 µM in data set [11] was determined as 12.7 µL/min/mg. Besides, in data set [12], the microsomal CLint at 10 µM turned out to be 6.88 µL/min/mg. Further, the microsomal CLint at 2.5 µM in data set [13] is 29.1 µL/min/mg. Further, the microsomal CLint at 1 µM in data set [14] was determined as 52.7 µL/min/mg. Further, the Km in data set [15] worked out at 0.62 µM; in data set [16] it was 0.72 µM; in [17] it was 0.36 µM; in data set [18], 0.22 µM; in [19] it was 0.13 µM. In addition, the Vmax is 3.95 nmol/min/mg in data set [15]; 4.63 nmol/min/mg in [16]; 4.53 nmol/min/mg in data set [17]; 6.28 nmol/min/mg in [18]; 7.03 nmol/min/mg in data set [19].
`CCCCCCCCCCCC(=O)O[C@H]1C=C[C@H]2[C@H]3Cc4ccc(OC)c5c4[C@@]2(CCN3C)[C@H]1O5`: the inhibition in [1] is 40%; in data set [2], 8%; in [3], -7%; in [4], 13%; in data set [20] it was 12%; in data set [21], 0%. Also, in [7], the inhibition entry is “inactive”. Besides, the inhibition entry in data set [23] is “Active”.
For `CN1CC[C@]23c4c5ccc(O)c4O[C@H]2[C@@H](O)C=C[C@H]3[C@H]1C5`, the inhibition in [1] was 100%; in data set [2], 95%; in [3], 72%; in data set [4] it was 95%.
As for `COc1ccc2c3c1O[C@H]1[C@@H](O)C=C[C@H]4[C@@H](C2)N(C)CC[C@@]341` [CODEINE], the IC50 in data set [24] was found to be 20.9 µM; in [8] it was 4.32 µM. The inhibition entry in [6] and in [7] was “inactive” throughout. Moreover, in [8], the Ki amounted to 6.9 µM. Besides, the inhibition result in data set [9] is “Dose-dependent effect”. For the same compound, the microsomal CLint at 50 µM in [10] turned out to be 8.35 µL/min/mg. Further, in data set [11], the microsomal CLint at 5 µM was 18.6 µL/min/mg. Moreover, the microsomal CLint at 10 µM in [12] was found to be 11.9 µL/min/mg. Moreover, the microsomal CLint at 2.5 µM in [13] turned out to be 31.1 µL/min/mg. In [14], the microsomal CLint at 1 µM stood at 48 µL/min/mg. Further, the Km in data set [15] was determined as 0.48 µM; in [16], 0.37 µM; in [17], 0.43 µM; in data set [18], 0.41 µM; in [19], 0.26 µM. Also, the maximum rate (Vmax) in [15] turned out to be 4.06 nmol/min/mg; in [16], 4.41 nmol/min/mg; in data set [17], 8.04 nmol/min/mg; in [18], 12.4 nmol/min/mg; in [19], 12.5 nmol/min/mg.

(Values after ChEMBL document CHEMBL3091304 (Bioorg Med Chem, 2013).)
